In brackets after ≈: the same amount, converted by molar mass.
Experiments:
[1] = test system: C. difficile strain 630 (CD630, ATCC BAA-1382-FZ, ribotype 012); assay: MIC by broth microdilution; type: cell-based, Clostridium difficile
[2] = test system: C. difficile strain 4118 (CD4118, ATCC BAA-1870, ribotype 027); assay: MIC by broth microdilution; type: cell-based, Clostridium difficile
[3] = test system: B. breve Strain EX336960VC19; assay: MIC by broth microdilution; type: cell-based; details: Bifidobacterium breve; B. breve EX336960VC19; LSM broth, anaerobic; duplicate; read-out: MIC
[4] = test system: B. longum subsp. longum Strain 44B; assay: MIC by broth microdilution; type: cell-based; details: Bifidobacterium longum; B. longum subsp. longum 44B; LSM broth, anaerobic; duplicate; read-out: MIC
[5] = test system: C. clostridioforme ATCC 25537; assay: MIC by broth microdilution; type: cell-based, Clostridium clostridioforme; details: Clostridium, ATCC25537; C. clostridioforme ATCC 25537; BHIS, anaerobic; duplicate; read-out: MIC
C. sporogenes ATCC 15579 = assay: MIC by broth microdilution; type: cell-based; details: Clostridium sporogenes, ATCC15579, BHIS, anaerobic, duplicate
[6] = test system: L. johnsonii Strain 135-1-CHN; assay: MIC by broth microdilution; type: cell-based; details: Lactobacillus johnsonii, STRAIN1351CHN; L. johnsonii 135-1-CHN; CAMHB with 5% laked horse blood, ~48 h; duplicate; read-out: MIC
L. plantarum ATCC 8014 = assay: MIC by broth microdilution; type: cell-based; details: Lactiplantibacillus plantarum, ATCC8014; L. plantarum ATCC 8014; CAMHB with 5% laked horse blood, ~48 h; duplicate; read-out: MIC
[7] = test system: L. reuteri Strain CF48-3A; assay: MIC by broth microdilution; type: cell-based, Lactobacillus reuteri; details: Limosilactobacillus reuteri; L. reuteri CF48-3A; CAMHB with 5% laked horse blood, ~48 h; duplicate; read-out: MIC
[8] = test system: B. fragilis Strain CL05T00C42; assay: MIC by broth microdilution; type: cell-based; details: Bacteroides fragilis; B. fragilis CL05T00C42; supplemented Brucella broth, anaerobic; duplicate; read-out: MIC
[9] = test system: B. thetaiotaomicron ATCC 29148; assay: microbe, parasite or virus in culture; type: cell-based; details: Bacteroides thetaiotaomicron, ATCC29148; B. thetaiotaomicron ATCC 29148; supplemented Brucella broth, anaerobic; duplicate; read-out: MIC
P. distasonis ATCC 8503 = assay: MIC by broth microdilution; type: cell-based; details: Parabacteroides distasonis, ATCC8503; P. distasonis ATCC 8503; supplemented Brucella broth, anaerobic; duplicate; read-out: MIC
P. nigrescens ATCC 33563 = assay: MIC by broth microdilution; type: cell-based; details: Prevotella nigrescens, ATCC33563; P. nigrescens ATCC 33563; supplemented Brucella broth, anaerobic; duplicate; read-out: MIC
B. subtilis ATCC 6051 = assay: MIC by broth microdilution; type: cell-based; details: Bacillus subtilis, ATCC6051; B. subtilis ATCC 6051; CAMHB, aerobic; duplicate; read-out: MIC
S. aureus RN4220 = assay: MIC by broth microdilution; type: cell-based; details: Staphylococcus aureus, CAMHB, aerobic, duplicate
S. epidermidis 1457 = assay: MIC by broth microdilution; type: cell-based; details: Staphylococcus epidermidis; S. epidermidis 1457; CAMHB, aerobic; duplicate; read-out: MIC
A. baumannii M2 = assay: MIC by broth microdilution; type: cell-based; details: Acinetobacter baumannii; A. baumannii M2; CAMHB, aerobic; duplicate; read-out: MIC
P. aeruginosa PAO1 = assay: MIC by broth microdilution; type: cell-based; details: Pseudomonas aeruginosa; P. aeruginosa PAO1; CAMHB, aerobic; duplicate; read-out: MIC
[10] = test system: panel of obligate aerobes, facultative anaerobes and obligate anaerobes; assay: Antibacterial spectrum, MIC against a panel of bacteria; type: cell-based; details: whole panel of Table S3
16 C. difficile isolates = assay: MIC by broth microdilution, summary over 16 C. difficile isolates; type: cell-based, Clostridium difficile; details: n = 2; for MIC50 / MIC90: Clostridioides difficile; for MIC50: MIC at which 50% of the 16 isolates are inhibited, read-out: MIC50; for MIC90: MIC at which 90% of the 16 isolates are inhibited, read-out: MIC90; for MIC Range: range over 16 C. difficile isolates
[11] = test system: C. difficile isolate 20110869 (ribotype 001_072); assay: MIC by broth microdilution; type: cell-based, Clostridium difficile; details: Clostridioides difficile; isolate 20110869, ribotype 001_072; duplicate; read-out: MIC
[12] = test system: C. difficile isolate 20110742 (ribotype 002); assay: MIC by broth microdilution; type: cell-based, Clostridium difficile; details: Clostridioides difficile; isolate 20110742, ribotype 002; duplicate; read-out: MIC
[13] = test system: C. difficile isolate 20100584 (ribotype 014); assay: MIC by broth microdilution; type: cell-based, Clostridium difficile; details: Clostridioides difficile; isolate 20100584, ribotype 014; duplicate; read-out: MIC
[14] = test system: C. difficile isolate 20110960 (ribotype 017); assay: MIC by broth microdilution; type: cell-based, Clostridium difficile; details: Clostridioides difficile; isolate 20110960, ribotype 017; duplicate; read-out: MIC
[15] = test system: C. difficile isolate 20110740 (ribotype 018); assay: MIC by broth microdilution; type: cell-based, Clostridium difficile; details: Clostridioides difficile; isolate 20110740, ribotype 018; duplicate; read-out: MIC
[16] = test system: C. difficile isolate 20120016 (ribotype 019); assay: MIC by broth microdilution; type: cell-based, Clostridium difficile; details: Clostridioides difficile; isolate 20120016, ribotype 019; duplicate; read-out: MIC
[17] = test system: C. difficile isolate 20110566 (ribotype 020); assay: MIC by broth microdilution; type: cell-based, Clostridium difficile; details: Clostridioides difficile; isolate 20110566, ribotype 020; duplicate; read-out: MIC
[18] = test system: C. difficile isolate 20111163 (ribotype 024); assay: MIC by broth microdilution; type: cell-based, Clostridium difficile; details: Clostridioides difficile; isolate 20111163, ribotype 024; duplicate; read-out: MIC
[19] = test system: C. difficile isolate 20121412 (ribotype 047); assay: MIC by broth microdilution; type: cell-based, Clostridium difficile; details: Clostridioides difficile; isolate 20121412, ribotype 047; duplicate; read-out: MIC
[20] = test system: C. difficile isolate 20100422 (ribotype 054); assay: MIC by broth microdilution; type: cell-based, Clostridium difficile; details: Clostridioides difficile; isolate 20100422, ribotype 054; duplicate; read-out: MIC
[21] = test system: C. difficile isolate 20110986 (ribotype 078); assay: MIC by broth microdilution; type: cell-based, Clostridium difficile; details: Clostridioides difficile; isolate 20110986, ribotype 078; duplicate; read-out: MIC
[22] = test system: C. difficile isolate 20110973 (ribotype 106); assay: MIC by broth microdilution; type: cell-based, Clostridium difficile; details: Clostridioides difficile; isolate 20110973, ribotype 106; duplicate; read-out: MIC
[23] = test system: C. difficile isolate 20121190 (ribotype 126); assay: MIC by broth microdilution; type: cell-based, Clostridium difficile; details: Clostridioides difficile; isolate 20121190, ribotype 126; duplicate; read-out: MIC
[24] = test system: C. difficile isolate 20110961 (ribotype A12); assay: MIC by broth microdilution; type: cell-based, Clostridium difficile; details: Clostridioides difficile; isolate 20110961, ribotype A12; duplicate; read-out: MIC
Hemolysis assay = type: cell-based; details: sheep, sheep red blood cells (3% suspension), pH 7.4; 32 µg/mL, 1 h, 37 °C; 1% Triton X-100 positive control; triplicate; read-out: Hemolysis (%)
Procedure: Sheep red blood cells (Innovative Research, Novi, MI, USA) were washed three times with PBS pH 7.4. A 3% cell suspension in PBS (100 μL) was added to test compounds in PBS (100 μL, to a final concentration of 32 μg/mL), and then incubated at 37 °C for 1 h. The plate was centrifuged at 500 × g for 10 min, and supernatants (100 μL) were transferred to a clean 96-well plate. Hemolysis was determined by measuring absorbance at 540 nm, with 1% Triton X-100 as the positive control and 0.5% DMSO in PBS as the negative control. Hemolysis assays were performed in triplicate.

SMILES: O=C(Nc1ccc(Oc2ccc(Cl)cc2)cc1)c1cc(I)cc(I)c1 [Compound 5i]
- MIC ([1]; Clostridioides difficile, ATCCBAA1382, BHIS broth, anaerobic, 20–24 h, n = 2): > 32 µg/mL
- in vitro activity against CD630 (in words) ([1]; growth inhibition, MIC assay): inactive
- MIC ([2]; Clostridioides difficile, ATCCBAA1870, BHIS broth, anaerobic, 20–24 h, n = 2, read-out: MIC C. difficile 4118): > 32 µg/mL
- in vitro activity against CD4118 (in words) ([2]; growth inhibition, MIC assay): inactive
- MIC [3]: > 32 µg/mL
- MIC [4]: > 32 µg/mL
- MIC [5]: > 32 µg/mL
- MIC (C. sporogenes ATCC 15579): > 32 µg/mL
- MIC [6]: > 32 µg/mL
- MIC (L. plantarum ATCC 8014): > 32 µg/mL
- MIC [7]: > 32 µg/mL
- MIC [8]: > 32 µg/mL
- MIC [9]: > 32 µg/mL
- MIC (P. distasonis ATCC 8503): > 32 µg/mL
- MIC (P. nigrescens ATCC 33563): > 32 µg/mL
- MIC (B. subtilis ATCC 6051): > 32 µg/mL
- MIC (S. aureus RN4220): > 32 µg/mL
- MIC (S. epidermidis 1457): > 32 µg/mL
- MIC (A. baumannii M2): > 32 µg/mL
- MIC (P. aeruginosa PAO1): > 32 µg/mL
- antibacterial activity (in words) [10]: lacked antibacterial activity

SMILES: O=C(Nc1ccc([N+](=O)[O-])cc1Cl)c1cc(Cl)ccc1O [Niclosamide, niclosamide]
- MIC50 (16 C. difficile isolates): 1 µg/mL (≈ 3.06 µM)
- MIC90 (16 C. difficile isolates): 2 µg/mL (≈ 6.11 µM)
- MIC Range (16 C. difficile isolates): 0.5 to 4 µg/mL
- MIC [11]: 2 µg/mL (≈ 6.11 µM)
- MIC [12]: 1 µg/mL (≈ 3.06 µM)
- MIC [13]: 0.5 µg/mL (≈ 1.53 µM)
- MIC [14]: 1 µg/mL (≈ 3.06 µM)
- MIC [15]: 1 µg/mL (≈ 3.06 µM)
- MIC [16]: 0.5 µg/mL (≈ 1.53 µM)
- MIC [17]: 1 µg/mL (≈ 3.06 µM)
- MIC [18]: 1 µg/mL (≈ 3.06 µM)
- MIC [19]: 1 µg/mL (≈ 3.06 µM)
- MIC [20]: 0.5 µg/mL (≈ 1.53 µM)
- MIC [21]: 1 µg/mL (≈ 3.06 µM)
- MIC [22]: 1 µg/mL (≈ 3.06 µM)
- MIC [23]: 0.5 µg/mL (≈ 1.53 µM)
- MIC [24]: 1 µg/mL (≈ 3.06 µM)
- hemolysis at 1 h, 32 µg/mL (Hemolysis assay): < 1%

SMILES: O=C(Nc1cc(Cl)cc(Cl)c1O)c1c(O)c(Cl)cc(Cl)c1Cl [Oxyclozanide, oxyclozanide]
- MIC50 (16 C. difficile isolates): 1 µg/mL (≈ 2.49 µM)
- MIC90 (16 C. difficile isolates): 1 µg/mL (≈ 2.49 µM)
- MIC Range (16 C. difficile isolates): 0.5 to 2 µg/mL
- MIC [11]: 0.5 to 1 µg/mL (≈ 1.25 to 2.49 µM)
- MIC [12]: 1 µg/mL (≈ 2.49 µM)
- MIC [13]: 1 µg/mL (≈ 2.49 µM)
- MIC [14]: 0.5 µg/mL (≈ 1.25 µM)
- MIC [15]: 1 µg/mL (≈ 2.49 µM)
- MIC [16]: 0.5 µg/mL (≈ 1.25 µM)
- MIC [17]: 1 µg/mL (≈ 2.49 µM)
- MIC [18]: 0.5 µg/mL (≈ 1.25 µM)
- MIC [19]: 2 µg/mL (≈ 4.98 µM)
- MIC [20]: 1 µg/mL (≈ 2.49 µM)
- MIC [21]: 1 µg/mL (≈ 2.49 µM)
- MIC [22]: 1 µg/mL (≈ 2.49 µM)
- MIC [23]: 1 µg/mL (≈ 2.49 µM)
- MIC [24]: 1 µg/mL (≈ 2.49 µM)
- hemolysis at 1 h, 32 µg/mL (Hemolysis assay): < 1%

— paper PMC5025651, “Reprofiled anthelmintics abate hypervirulent stationary-phase Clostridium difficile” (Scientific Reports, 2016)
